Experimental data as given in PubChem BioAssay (NCI).
Where “and” joins values, the source holds several entries; their conditions need not be identical. Equal entries are not always repeated.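 Five concentrations, 48 hours, 96-well plates. The concentration for 50% growth inhibition is given as GI50. TGI: concentration producing complete growth inhibition.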

How the values were obtained:
Experiment in all cases: DTP human tumour cell line panel, 48 h
[1] = test system: SR leukemia
[2] = test system: OVCAR-8 ovarian
[3] = test system: U251 CNS
[4] = test system: LXFL 529 NSCLC
[5] = test system: HT29 colon
[6] = test system: CAKI-1 renal
[7] = test system: DMS 114 small cell lung
[8] = test system: SN12C renal
[9] = test system: KM20L2 colon
[10] = test system: UACC-257 melanoma
[11] = test system: DU-145 prostate
[12] = test system: SK-MEL-2 melanoma
[13] = test system: MDA-MB-231 breast
[14] = test system: MALME-3M melanoma
[15] = test system: EKVX NSCLC
[16] = test system: SNB-78 CNS
[17] = test system: SNB-19 CNS
[18] = test system: UACC-62 melanoma
[19] = test system: SK-MEL-28 melanoma
[20] = test system: HOP-62 NSCLC
[21] = test system: M14 melanoma
[22] = test system: T-47D breast
[23] = test system: RXF-631 renal
[24] = test system: K-562 leukemia
[25] = test system: HS 578T breast
[26] = test system: MDA-MB-435
[27] = test system: SNB-75 CNS
[28] = test system: NCI-H23 lung
[29] = test system: CCRF-CEM leukemia
[30] = test system: MDA-N
[31] = test system: PC-3 prostate
[32] = test system: SF-295 CNS
[33] = test system: BT-549 breast
[34] = test system: MCF7 breast
[35] = test system: SF-539 CNS
[36] = test system: HCT-116 colon
[37] = test system: ACHN renal
[38] = test system: COLO 205 colon
[39] = test system: A549 NSCLC
[40] = test system: SW-620 colon
[41] = test system: NCI/ADR-RES ovarian
[42] = test system: RXF 393 renal
[43] = test system: SF-268 CNS
[44] = test system: MOLT-4 leukemia
[45] = test system: OVCAR-4 ovarian
[46] = test system: SK-OV-3 ovarian
[47] = test system: 786-0 renal
[48] = test system: HOP-92 NSCLC
[49] = test system: A498 renal
[50] = test system: LOX IMVI melanoma
[51] = test system: NCI-H226 lung
[52] = test system: OVCAR-3 ovarian
[53] = test system: SK-MEL-5 melanoma
[54] = test system: HL-60(TB) leukemia
[55] = test system: NCI-H522 lung
[56] = test system: HCT-15 colon
[57] = test system: NCI-H460 lung
[58] = test system: OVCAR-5 ovarian
[59] = test system: TK-10 renal
[60] = test system: M19-MEL melanoma
[61] = test system: XF 498 CNS
[62] = test system: DMS 273 small cell lung
[63] = test system: IGROV1 ovarian
[64] = test system: UO-31 renal
[65] = test system: HCC-2998 colon

Compound: CCN(CC)CCNc1c2ccccc2nc2cccc([N+](=O)[O-])c12
- TGI [1]: 88.8 nM
- TGI [2]: 38.2 nM
- TGI [3]: 77.5 nM
- TGI [4]: 84.3 nM
- TGI [5]: 40.8 nM and 45.5 nM
- TGI [6]: 25.4 nM and 72.1 nM
- GI50 [7]: 11.7 nM
- TGI [7]: 93.5 nM and 33.5 nM
- GI50 [8]: 22.1 nM
- TGI [8]: 41.3 nM and 207 nM
- TGI [9]: 55.3 nM
- GI50 [10]: 22 nM
- TGI [10]: 50.2 nM and 65 nM
- TGI [11]: 14.6 nM
- GI50 [12]: 10.2 nM
- TGI [12]: 18.5 nM and 23 nM
- TGI [13]: 4.87 nM
- GI50 [14]: 13 nM
- TGI [14]: 23.1 nM and 28.7 nM
- GI50 [15]: 29 nM
- TGI [15]: 29.8 nM and 80 nM
- GI50 [16]: 23 nM
- TGI [16]: 130 nM
- GI50 [17]: 16.6 nM
- TGI [18]: 20.8 nM
- TGI [19]: 56.6 nM and 152 nM
- TGI [20]: 16.4 nM
- TGI [21]: 18.8 nM and 24.5 nM
- TGI [22]: 66.1 nM
- GI50 [23]: 10.7 nM
- TGI [23]: 33.2 nM
- TGI [24]: 121 nM
- TGI [25]: 39 nM
- TGI [26]: 3.23 nM
- TGI [27]: 34.7 nM
- TGI [28]: 18.8 nM
- TGI [29]: 480 nM
- TGI [30]: 3.73 nM
- TGI [31]: 12.2 nM
- GI50 [32]: 15 nM
- TGI [32]: 34.2 nM and 64.3 nM
- TGI [33]: 18.7 nM
- TGI [34]: 6.3 nM
- GI50 [35]: 107 nM
- TGI [35]: 47.2 nM and 251 nM
- TGI [36]: 18.2 nM and 46.6 nM
- TGI [37]: 18.4 nM and 46.8 nM
- TGI [38]: 17.6 nM
- TGI [39]: 18 nM and 39.1 nM
- TGI [40]: 39.5 nM and 172 nM
- TGI [41]: 34 nM
- TGI [42]: 35.1 nM and 11.2 nM
- GI50 [43]: 19.3 nM
- TGI [43]: 56 nM and 420 nM
- TGI [44]: 124 nM
- GI50 [45]: 27.9 nM
- TGI [45]: 28.9 nM and 178 nM
- TGI [46]: 63.7 nM
- TGI [47]: 26.6 nM and 48.9 nM
- TGI [48]: 26.1 nM
- TGI [49]: 14 nM
- GI50 [50]: 36.3 nM
- TGI [51]: 55.3 nM
- GI50 [52]: 24.4 nM
- TGI [52]: 24.1 nM and 62.1 nM
- GI50 [53]: 11.2 nM
- TGI [53]: 17.3 nM and 25.8 nM
- GI50 [54]: 10.4 nM
- TGI [54]: 175 nM
- TGI [55]: 13.2 nM
- TGI [56]: 20.5 nM and 39.8 nM
- TGI [57]: 18.6 nM
- TGI [58]: 30.2 nM
- TGI [59]: 81.3 nM
- GI50 [60]: 15.6 nM
- TGI [60]: 40.9 nM
- TGI [61]: 56.9 nM and 19.6 nM
- TGI [62]: 78.7 nM
- TGI [63]: 26.7 nM
- GI50 [64]: 71.2 nM
- TGI [64]: 41.2 nM and 252 nM
- TGI [65]: 31.5 nM and 15.6 nM
